Data as given in publication PMC7911959, “Selective Inhibition of Human Monoamine Oxidase B by 5-hydroxy-2-methyl-chroman-4-one Isolated from an Endogenous Lichen Fungus Daldinia fissa” (Journal of Fungi, 2021).
In brackets after ≈: the same amount, converted by molar mass. Entries after “also recorded” stand apart in the source; their conditions may differ.

How the values were obtained:
monoamine oxidase = biological target: monoamine oxidase; set-up: method as in PMID 27520493; settings: cited from earlier work
liver or brain MAO = settings: read-out: IC50 MAO enzyme; cited from earlier work
Human recombinant MAO-A = biological target: T1, Human recombinant MAO-A (Homo sapiens, UniProt P21397); assay: MAO-A activity assay (kynuramine, 316 nm); format: biochemical
T1 construct: purchased Sigma-Aldrich
T1 sequence (P21397 1-527): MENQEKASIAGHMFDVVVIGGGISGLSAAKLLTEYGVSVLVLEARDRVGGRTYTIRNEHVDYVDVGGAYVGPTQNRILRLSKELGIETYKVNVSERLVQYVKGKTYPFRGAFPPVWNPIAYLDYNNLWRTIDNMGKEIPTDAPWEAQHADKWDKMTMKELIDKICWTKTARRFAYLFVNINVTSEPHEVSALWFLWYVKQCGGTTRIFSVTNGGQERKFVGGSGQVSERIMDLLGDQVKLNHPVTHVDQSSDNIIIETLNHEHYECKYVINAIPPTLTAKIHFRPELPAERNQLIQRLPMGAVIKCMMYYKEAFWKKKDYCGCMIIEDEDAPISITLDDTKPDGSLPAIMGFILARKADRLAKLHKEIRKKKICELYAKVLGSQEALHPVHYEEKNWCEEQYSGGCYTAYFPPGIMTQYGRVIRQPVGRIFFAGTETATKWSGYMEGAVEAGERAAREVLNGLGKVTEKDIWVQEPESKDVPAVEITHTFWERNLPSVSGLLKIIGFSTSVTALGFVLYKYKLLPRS
Method: (§1) Human recombinant MAO-A and MAO-B enzymes were used, and the activities were measured in a final volume of 500 µL of 100 mM sodium phosphate buffer of pH 7.2, and 0.06 mM kynuramine (MAO-A), or 0.3 mM benzylamine (MAO-B).
(§2) The inhibitory activities of the isolated compounds were analyzed at a concentration of 2 µg/mL.

Human recombinant MAO-B = biological target: T2, Human recombinant MAO-B (Homo sapiens, UniProt P27338); assay: MAO-B activity assay (benzylamine, 250 nm); format: biochemical
T2 construct: purchased Sigma-Aldrich
T2 sequence (P27338 1-520): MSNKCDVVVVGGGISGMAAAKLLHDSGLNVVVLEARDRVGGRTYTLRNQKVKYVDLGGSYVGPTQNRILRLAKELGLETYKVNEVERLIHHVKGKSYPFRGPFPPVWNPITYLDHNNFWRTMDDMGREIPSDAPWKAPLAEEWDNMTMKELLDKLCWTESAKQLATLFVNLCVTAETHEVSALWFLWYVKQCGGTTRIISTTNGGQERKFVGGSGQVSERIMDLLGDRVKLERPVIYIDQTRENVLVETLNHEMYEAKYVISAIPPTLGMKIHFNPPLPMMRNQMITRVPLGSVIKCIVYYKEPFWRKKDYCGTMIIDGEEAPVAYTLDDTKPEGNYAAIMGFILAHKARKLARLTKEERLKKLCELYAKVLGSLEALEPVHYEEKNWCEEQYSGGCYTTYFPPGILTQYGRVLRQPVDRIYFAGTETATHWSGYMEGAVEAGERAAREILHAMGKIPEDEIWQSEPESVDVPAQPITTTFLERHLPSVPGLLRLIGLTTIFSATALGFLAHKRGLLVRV
Method: as §1, §2

electric eel AChE = biological target: T3, electric eel AChE (Electrophorus electricus, UniProt O42275); assay: biochemical
T3 construct: purchased Sigma-Aldrich
Method: (§3) For cholinesterase activity assay, electric eel AChE and horse serum BChE were used. Activities were measured according to the Ellman method, with slight modifications, in 50 mM sodium phosphate buffer (pH 7.5). After adding cholinesterase enzymes and the inhibitor, pre-incubation was applied for 15 min. After adding 0.5 mM 5,5-dithiobis (2-nitrobenzoic acid) (DTNB) 0.5 mM for color development, 0.5 mM acetyl thiocholine iodide (ATCI) or 0.5 mM butyrylthiocholine iodide (BTCI) was used as a substrate.

horse serum BChE = biological target: T4, horse serum BChE (Equus caballus, UniProt P81908); assay: biochemical
T4 construct: electric eel AChE and horse serum BChE were used; purchased Sigma-Aldrich; host or cells: horse serum
Method: as §3

BACE-1 = test system: T5, BACE-1; assay: BACE-1 activity assay (detection kit, fluorescence); format: biochemical; settings: isolated compounds, residual activity at 10 µg/mL (footnote a)
T5 construct: purchased Sigma-Aldrich
Method: BACE-1 assay was carried out using the BACE-1 activity detection kit and a fluorescence spectrometer (FS-2, Scinco, Seoul, Korea) by an excitation at 320 nm and an emission at 405 nm, after the reaction for 2 h at 37 °C [24].

[1] = DPPH antioxidant activity assay; settings: isolated compounds, 100 µg/mL (footnote b)
Method: The antioxidant activity was measured at 100 µg/mL of the extracts using 0.1 mM 2,2-diphenyl-1-picrylhydrazyl (DPPH). After 15 min of pre-incubation, absorbance was measured at 517 nm.

MAO-B [2] = test system: T6, MAO-B; assay: Inhibitor reversibility analysis by dialysis; format: biochemical, human; settings: for MAO-B activity recovered after dialysis: ~2× IC50, dialyzed; for MAO-B activity before dialysis (undialyzed): ~2× IC50, undialyzed
T6 construct: purchased Sigma-Aldrich

[3] = test system: MDCK (Madin–Darby canine kidney) cells; assay: Cytotoxicity, CCK-8 assay, MDCK; format: cell-based; settings: 50 µM, 24 h treatment, CCK-8 3 h
Method: (§4) Cell viability was determined according to the cell counting kit (CCK)-8 assay method, using MDCK (Madin–Darby canine kidney) and HL-60 (human acute promyelocytic leukemia) cells, as normal and cancer cells, respectively. Briefly, MDCK and HL-60 cells were resuspended in Dulbecco’s modified eagle medium (DMEM) and Roswell Park Memorial Institute (RPMI)-1640, respectively, at 1 × 10^5 and 3 × 10^5 cells/mL, respectively. The cell suspension (100 µL) was added to each well of the 96-well plate and was incubated for 24 h at 5% CO2 and 37 °C. After incubation, 100 µL of the medium supplemented with 1, 3, 10, 30, and 50 µM of the compound was added to each well and incubated again. After 24 h, 100 µL of the solution was removed from each well, and CCK-8 (10 µL/well) was dispensed. After 2~4 h, the absorbance was detected at 450 nm with a microplate reader (Versamax, Molecular Devices, CA, USA).

[4] = test system: HL-60 (human acute promyelocytic leukemia) cells; assay: Cytotoxicity, CCK-8 assay, HL-60; format: cell-based; settings: 50 µM, 24 h treatment, CCK-8 4 h
Method: as §4

MAO-B [5] = biological target: T6, MAO-B; settings: co-crystallized ligand of PDB 4A79; reference not given; cited from earlier work

T4 sequence (P81908 whole entry): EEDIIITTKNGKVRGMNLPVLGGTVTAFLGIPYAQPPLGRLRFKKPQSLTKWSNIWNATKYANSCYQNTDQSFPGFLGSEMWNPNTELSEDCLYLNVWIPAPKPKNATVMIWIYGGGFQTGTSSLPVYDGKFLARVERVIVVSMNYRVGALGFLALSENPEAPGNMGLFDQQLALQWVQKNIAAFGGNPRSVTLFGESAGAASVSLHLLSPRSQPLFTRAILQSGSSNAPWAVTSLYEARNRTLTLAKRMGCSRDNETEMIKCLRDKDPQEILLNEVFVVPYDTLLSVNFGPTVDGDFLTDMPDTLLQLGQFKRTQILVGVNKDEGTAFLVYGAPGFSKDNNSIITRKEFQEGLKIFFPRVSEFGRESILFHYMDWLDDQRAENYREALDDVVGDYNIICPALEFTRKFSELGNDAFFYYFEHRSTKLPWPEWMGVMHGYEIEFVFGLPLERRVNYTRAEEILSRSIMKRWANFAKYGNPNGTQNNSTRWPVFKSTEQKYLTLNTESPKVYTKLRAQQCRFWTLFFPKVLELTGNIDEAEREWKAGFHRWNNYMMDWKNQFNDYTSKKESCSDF
T3 sequence (O42275 24-633): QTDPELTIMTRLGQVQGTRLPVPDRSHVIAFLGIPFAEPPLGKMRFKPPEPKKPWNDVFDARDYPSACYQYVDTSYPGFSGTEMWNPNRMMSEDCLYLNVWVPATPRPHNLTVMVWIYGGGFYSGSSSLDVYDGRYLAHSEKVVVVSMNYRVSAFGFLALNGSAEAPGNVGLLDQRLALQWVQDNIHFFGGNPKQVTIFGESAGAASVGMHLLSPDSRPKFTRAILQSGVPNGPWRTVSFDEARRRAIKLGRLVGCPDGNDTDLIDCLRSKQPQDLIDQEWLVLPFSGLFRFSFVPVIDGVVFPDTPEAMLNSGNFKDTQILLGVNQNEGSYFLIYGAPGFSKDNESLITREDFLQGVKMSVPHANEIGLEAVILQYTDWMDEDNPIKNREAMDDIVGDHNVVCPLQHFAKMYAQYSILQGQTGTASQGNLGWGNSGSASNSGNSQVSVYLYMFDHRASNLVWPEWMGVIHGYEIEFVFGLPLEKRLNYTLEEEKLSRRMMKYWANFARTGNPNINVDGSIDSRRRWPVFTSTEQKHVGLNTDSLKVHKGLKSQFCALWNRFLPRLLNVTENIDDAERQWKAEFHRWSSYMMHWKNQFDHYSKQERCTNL

## CC1Cc2cccc(O)c2C(=O)O1 (centres unmarked) [mellein, Mellein]
Monoamine oxidase
  IC50: 50.2 µM
  IC50 monoamine oxidase: 8.93 µg/mL (≈ 50.1 µM)

## CCCCCC(=O)c1c(O)cc2c(c1O)C(=O)c1c(O)cc(OC)cc1C2=O [Solorinic acid]
Liver or brain MAO
  IC50: 14.3 µM

## CC1CC(=O)c2c(O)cccc2O1 (centres unmarked) [HMC, 5-hydroxy-2-methyl-chroman-4-one]
Human recombinant MAO-A
  IC50: 14 ± 2.07 µM
Human recombinant MAO-A; isolated compounds, 2 µg/mL, read-out: Residual Activity at 2 µg/mL (%) MAO-A
  remaining activity at 2 µg/mL: 55.8 ± 0.91%
Human recombinant MAO-B
  IC50: 3.23 ± 0.3 µM
Human recombinant MAO-B; MAO-B
  Inhibition pattern (Lineweaver–Burk plots): competitive inhibitor
Human recombinant MAO-B; isolated compounds, 2 µg/mL, read-out: Residual Activity at 2 µg/mL (%) MAO-B
  remaining activity at 2 µg/mL: 13.2 ± 0.48%
Human recombinant MAO-B; preincubation up to 30 min
  Time-dependency: residual activities after preincubation: not changed significantly
Human recombinant MAO-B; ratio of IC50 values
  Selectivity for MAO-B compared to MAO-A: ~ 4 fold
Human recombinant MAO-B; secondary plot of Lineweaver–Burk slopes vs inhibitor concentration
  Ki: 896 nM
Electric eel AChE
  IC50: > 40 µM
Electric eel AChE; isolated compounds, 2 µg/mL, read-out: Residual Activity at 2 µg/mL (%) AChE
  remaining activity at 2 µg/mL: 73 ± 1.13%
Horse serum BChE
  IC50: > 40 µM
Horse serum BChE; isolated compounds, 2 µg/mL, read-out: Residual Activity at 2 µg/mL (%) BChE
  remaining activity at 2 µg/mL: 83.8 ± 5.89%
BACE-1
  Residual Activity (%) BACE-1: 98.6 ± 2.04%
[1]
  % Inhibition DPPH: 25.11 ± 2.12%
MAO-B [2]; dialysis, ~2× IC50
  Reversibility of MAO-B inhibition: reversible inhibitor
MAO-B [2]
  MAO-B activity recovered after dialysis: 80.6%
  MAO-B activity before dialysis (undialyzed): 23.1%
[3]
  Cell viability, MDCK: No cytotoxicity; also recorded: not decreased at all
[4]
  Cell viability, HL-60: No cytotoxicity; also recorded: not decreased at all

## C#CCN(C)Cc1ccccc1 [Pargyline, reference compound]
MAO-B [2]
  MAO-B activity recovered after dialysis: not recovered at all

## CCc1ccc(CCOc2ccc(CC3SC(=O)NC3=O)cc2)nc1 (centres unmarked) [P1B, pioglitazone]
MAO-B [5]
  Ki: 500 nM

## NCCNC(=O)c1ccc(Cl)cn1 [Lazabemide, reference compound]
MAO-B [2]
  MAO-B activity recovered after dialysis: 74.4%
  MAO-B activity before dialysis (undialyzed): 26.0%
